Experimental data as given in patent US20220242812A1, “SWELL1-LRRC8 COMPLEX MODULATORS” (Washington University, priority 2019, published 2022).
Entries after “also recorded” stand apart in the source; their conditions may differ.

Tests used:
[1] = molecular target: ICl,SWELL (SWELL1 channel) (Homo sapiens, UniProt Q8IWT6); assay: Patch-clamp screening of Smod compounds for ICl,SWELL inhibitory activity; format: cell-based; conditions: preliminary patch-clamp experiments, in words
From the text: FIG. 2. Patch-clamp screening of Smod compounds for ICL,SWELL inhibitory activity.
FIG. 3. Patch-clamp screening of Smod compounds for ICL,SWELL inhibitory activity.
A series of compounds (Smod compounds) were synthesized to evaluate the role of a butyrate side chain and aryl substituents on activity (see FIG. 1 and Table 1 below). In preliminary patch-clamp experiments to screen for compounds that preserve or enhance SWELL1 modulatory activity, unique structural derivatives were identified with ICl,SWELL inhibitory activity (Smod 2-6, FIGS. 2, 3, and 12-16, as well as Table 1 below). […] In vitro channel inhibitory activity was also maintained with Smod3-5 (FIG. 3). Note that compounds were also identified that lack activity, and therefore are not SWELL1 modulators (i.e., Snot1, FIGS. 2A and 3A). FIG. 4 summarizes three dose response curves of isolated enantiomers of Smod1 (+ and −) compared to Smod3. […] FIG. 5 summarizes the synthetic scheme used to generate these compounds.

HFD T2D mice = assay: Glucose tolerance and fasting glucose in HFD T2D mice (Smod compounds, Example 2); format: in vivo
Protocol: FIG. 7. Representative glucose tolerance test data, area under curve (AUC) and fasting glucose for mice treated with a vehicle, and 5 mg/kg/day Smod3 or Snot1 for 5 days. Smod3, but not Snot1 improves glucose tolerance (as measured by are under the curve, AUC), and fasting glucose in HFD T2D mice. N=5 mice in each group. *p<0.05, ** p<0.01, *** p<0.001.
FIG. 8. Glucose Tolerance of obese T2D mice (16 weeks HFD): Pre-Smod6 (black circles), after Smod6 (5 mg/kg i.p.×5 days, pink triangles), 4 weeks after i.p. vehicle injection (blue diamonds), and 4 weeks after discontinuing Smod6 (maroon squares).
FIG. 9. Glucose Tolerance of obese T2D mice (16 weeks HFD): 4 weeks after i.p. vehicle injection (black circles), 4 weeks after Snot1 (5 mg/kg i.p.×5 days, blue squares), and 4 weeks after Smod6 (5 mg/kg i.p.×5 days, maroon triangles).
Moreover, Smod3, and not Snot1 (5 mg/kg i.p.×[…]) improve glucose tolerance (GTT, Area under the curve) and fasting glucose (FG) in mice raised on HFD for 8 weeks in pilot studies (FIG. 7).

[2] = molecular target: T1, SWELL1-LRRC8 channel (ICl,SWELL) in HEK-293 cells (Homo sapiens, UniProt Q8IWT6); assay: ICl,SWELL inhibition after hypotonic activation, patch-clamp in HEK-293 cells; format: cell-based; conditions: HEK-293 cells, hypotonic (210 mOsm), 10 and 7 μM, relative to SN-401
T1 construct: endogenous in cells; host or cells: HEK-293 (ATCC CRL-1573)
Protocol: Mean presented±SEM. Two-tailed unpaired t-test was used. *, **, and *** represents p<0.05, p<0.01 and p<0.001, respectively.
(§1) Patch-clamp recordings of β-cells and mature adipocytes were performed as described previously (Kang et al., 2018; Zhang et al., 2017). 3T3-F442A WT and KO preadipocytes were prepared as described in the Cell culture section above. For SWELL1 overexpression recordings, preadipocytes were first transduced with Ad5-CAG-LoxP-stop-LoxP-3×Flag-SWELL1 (MOI 12) in 2% FBS culture medium for two days and then overexpression induced by adding Ad5-CMV-Cre-wt-lRES-eGFP (MOI 10-12) in 2% FBS culture medium for two more days and changed to 10% FBS containing culture media and were selected based on GFP expression (˜2-3 days). For cell recordings, islets were transduced with Ad-RIP2-GFP and then dispersed after 48-72 hours for patch-clamp experiments. GFP+ cells marked β-cells selected for patch-clamp recordings. […] Recordings were measured using […] amplifier paired to a Digidata 1550 digitizer using pClamp 10.4 software. The extracellular buffer composition for hypotonic stimulation contains 90 mM NaCl, 2 mM CsCl, 1 mM MgCl, 1 mM CaCb, 10 mM HEPES, 10 mM Mannitol, pH 7.4 with NaOH (210 mOsm/kg). The extracellular isotonic buffer composition is same as above except for Mannitol concentration of 110 mM (300 mOsm/kg). The composition of intracellular buffer is 120 mM L-aspartic acid, 20 mM CsCl, 1 mM MgCl, 5 mM EGTA, 10 mM HEPES, 5 mM MgATP, 120 mM CsOH, 0.1 mM GTP, pH 7.2 with CsOH. All recordings were carried out at room temperature (RT) with HEK-293 cells, β-cells and 3T3-F442A cells performed in whole-cell configuration and human adipocytes in perforated-patch configuration, as previously described (Kang et al., 2018; Zhang et al., 2017).

[3] = molecular target: T2, closed SWELL1-LRRC8 channel in HEK-293 cells (Homo sapiens, UniProt Q8IWT6); assay: ICl,SWELL inhibition on application to the closed SWELL1-LRRC8 channel (30 min preincubation), HEK-293 cells; format: cell-based; conditions: 1 μM, 30 minutes prior to hypotonic activation
T2 construct: endogenous in cells; host or cells: HEK-293 (ATCC CRL-1573)
Protocol: as §1

SWELL1 protein [4] = molecular target: T3, SWELL1 protein (Mus musculus, UniProt Q80WG5); conditions: 3T3-F442A adipocytes, 1 and 10 μM, 4 days
HFD-induced T2D mice = assay: Metabolic phenotyping (fasting glucose, GTT, ITT) in HFD-fed T2D mice; format: in vivo; conditions: HFD 8 weeks, 5 mg/kg/day x 4 days, compared to SN071
Protocol: (§2) All compounds were dissolved in Kolliphor® EL (Sigma, #C5135).
Mice were fasted for 6 h prior to glucose tolerance tests (GTT). Baseline glucose levels at 0 min timepoint (fasting glucose, FG) were measured from blood sample collected from tail snipping using glucometer (Bayer Healthcare LLC). Either 1 g or 0.75 g D-Glucose/kg body weight were injected (i.p.) for lean or HFD mice, respectively and glucose levels were measured at 7, 15, 30, 60, 90 and 120 min timepoints after injection. For insulin tolerance tests (ITTs), the mice were fasted for 4 h. […] All mice and treatment groups were assessed blindly while performing experiments.

polygenic T2D KKAy mice = assay: Metabolic phenotyping (fasting glucose, GTT, ITT) in polygenic T2D KKAy mice; format: in vivo; conditions: T2D KKAy mice, 5 mg/kg i.p. 4 days, compared to SN071
From the text: All C57BL/6 mice involved in study were purchased from Charles River Labs. Both KK.Cg-Ay/J (KKN) and KK.Cg-Aa/J (KKAa) mice involved in study were gender and age-matched mice obtained from Jackson Labs (Stock No: 002468) and bred up for experiments. The mice were fed ad libitum with either regular chow (RC) or high-fat diet (Research Diets, Inc., 60 kcal % fat) with free access to water and housed in a light-, temperature- and humidity-controlled room. For high-fat diet (HFD) studies, only male mice were used and were started on HFD regimen at the age of 6-9 weeks. For all experiments involving KKN and KKAa mice, both males and females were used at approximately 50/50 ratio. In all experiments involving mice, investigators were kept blinded both during the experiments and subsequent analysis.
as §2
Mice were fasted for 6 h prior to glucose tolerance tests (GTT). Baseline glucose levels at 0 min timepoint (fasting glucose, FG) were measured from blood sample collected from tail snipping using glucometer (Bayer Healthcare LLC). Either 1 g or 0.75 g D-Glucose/kg body weight were injected (i.p.) for lean or HFD mice, respectively and glucose levels were measured at 7, 15, 30, 60, 90 and 120 min timepoints after injection. For insulin tolerance tests (ITTs), the mice were fasted for 4 h. Similar to GTTs, the baseline blood glucose levels were measured at 0 min timepoint and 15, 30, 60, 90 and 120 min timepoints post-injection (i.p.) of insulin (HumulinR, 1 U/kg body weight for lean mice or 1.25 U/kg body weight for HFD mice). […] The collected plasma was then measured for insulin content by using Ultra-Sensitive Mouse Insulin ELISA Kit (Crystal Chem, #90080). All mice and treatment groups were assessed blindly while performing experiments.

[5] = system: islets, glucose-stimulated insulin secretion; assay: Islet perifusion GSIS assay, islets from treated T2D mice; format: in vivo; conditions: islets of T2D KKAy mice, compared to SN071
Protocol: For patch-clamp studies involving primary mouse cells, the mice were anesthesized by injecting Avertin (0.0125 g/ml in H2O) followed by cervical dislocation. […] Perifusion buffer contained (in mM): 120 NaCl, 24 NaHCO3, 4.8 KCl, 2.5 CaCl, 1.2 MgSO4, 10 HEPES, 2.8 glucose, 27.2 mannitol, 0.25% w/v bovine serum albumin, pH 7.4 with NaOH (300 mOsm/kg). Perifusion buffer kept at 37° C. was circulated at 120 μI/min After 48 min of washing with 2.8 mM glucose solution for stabilization, islets were stimulated with the following sequence: 16 min of 16.7 mM glucose, 40 min of 2.8 mM glucose, 10 min of 30 mM KCl, and 12 min of 2.8 mM glucose. Osmolarity was matched by adjusting mannitol concentration when preparing solution containing 16.7 mM glucose. Serial samples were collected either every 1 or 2 min into 96 wells kept at 4° C. Insulin concentrations were further determined using commercially available ELISA kit (Mercodia). The area under the curve (AUC) for the high-glucose induced insulin release was calculated for time points between 50 to 74/84 min. At the completion of the experiments, islets were further lysed by addition of RIPA buffer and the amount of insulin was detected by ELISA.

SWELL1 protein [6] = molecular target: T3, SWELL1 protein; assay: Glucolipotoxic stress (palmitate + glucose) SWELL1 protein in 3T3-F442A adipocytes; conditions: 10 μM 96 h, 1 mM palmitate + 25 mM glucose
[7] = mice on HFD 8 weeks, 5 mg/kg i.p. x 4 days (FIG. 7 legend: 5 days), listed as Smod3, 5 mg/kg

SMILES: CCCCC1(C2CCCC2)Cc2cc(OCCCN(C)C)c(Cl)c(Cl)c2C1=O.Cl (racemic) [UICK-IV-105b]
- ICl,SWELL inhibitory activity ([1]; listed as Smod2): active; also recorded: maintaining activity

SMILES: CCCCC1(C2CCCC2)Cc2cc(OCCCCC(=O)O)c(Cl)c(Cl)c2C1=O (racemic) [UICK-IV-119]
- ICl,SWELL inhibitory activity ([1]; listed as Smod3): maintaining and augmenting activity
- Fasting glucose (FG) (HFD T2D mice; [7]): improves
- Glucose tolerance (GTT, area under the curve) (HFD T2D mice; [7]): improves

SMILES: CCCCC1(C2CCCC2)Cc2cc(OC/C=C/C(=O)O)c(Cl)c(Cl)c2C1=O (racemic) [UIPC-II-179]
- ICl,SWELL inhibitory activity [1]: maintaining activity

SMILES: CCCCC1(C2CCCC2)Cc2cc(OCCCC(=O)O)c(C)c(C)c2C1=O (racemic) [UIPC-II-187B]
- ICl,SWELL inhibitory activity ([1]; listed as Smod5): did not significantly alter activity; also recorded: maintaining activity

SMILES: CCCCC1(C2CCCC2)Cc2cc(OCCCCCC(=O)O)c(Cl)c(Cl)c2C1=O (racemic) [UIPC-III-045B]
- Glucose tolerance 4 weeks after discontinuing treatment (HFD T2D mice; T2D HFD fed mice, 5 mg/kg i.p. x 5 days, after 20 weeks HFD): sustain improved glucose tolerance

SMILES: CCCCC1(C2CCCC2)Cc2cc(OCC(=O)O)c(Cl)c(Cl)c2C1=O (centres unmarked) [SN071, 2-((2-butyl-6,7-dichloro-2-cyclopentyl-1-oxo-2,3-dihydro-1H-inden-5-yl)oxy)acetic acid]
- On-target inhibition of ICl,SWELL [2]: eliminate ICl,SWELL inhibitory activity
- On-target inhibition of ICl,SWELL ([2]; listed as S1\1071): entirely eliminated
- Subsequent hypotonic SWELL1-LRRC8 activation [3]: inactive
- SWELL1 protein level relative to vehicle-treated controls (SWELL1 protein [4]): do not significantly increase

SMILES: CCCCC1(C2CCCC2)Cc2cc(OCCCCC(=O)O)c(Cl)c(Cl)c2C1=O (centres unmarked) [SN-403, 5-((2-butyl-6,7-dichloro-2-cyclopentyl-1-oxo-2,3-dihydro-1H-inden-5-yl)oxy)pentanoic acid]
- On-target inhibition of ICl,SWELL [2]: maintained or enhanced
- Fasting blood glucose (HFD-induced T2D mice): significantly reduced
- Glucose tolerance (HFD-induced T2D mice): improved

SMILES: CCCCC1(C2CCCC2)Cc2cc(OCCCCCCC(=O)O)c(Cl)c(Cl)c2C1=O (centres unmarked) [SN-407, 7-((2-butyl-6,7-dichloro-2-cyclopentyl-1-oxo-2,3-dihydro-1H-inden-5-yl)oxy)heptanoic acid]
- On-target inhibition of ICl,SWELL [2]: maintained or enhanced; also recorded: increase
- Glucose tolerance based on the GTT AUC (polygenic T2D KKAy mice): improved
- GSIS [5]: increased

SMILES: CCCCC1(C2CCCC2)Cc2cc(OCC(=O)O)c(Cl)c(Cl)c2C1=O (centres unmarked) [UICK-IV-101a]
- ICl,SWELL inhibitory activity ([1]; listed as Snot1): lack activity; also recorded: lacking ICl,SWELL inhibitory activity
- Glucose tolerance (GTT, area under the curve) (HFD T2D mice; mice on HFD 8 weeks, 5 mg/kg i.p. x 4 days (FIG. 7 legend: 5 days)): not

SMILES: O=C(O)CCCOc1cc2c(c(Cl)c1Cl)C(=O)C(C1CCCC1)C2 (centres unmarked) [UIPC-III-083B, 4-((6,7-dichloro-2-cyclopentyl-1-oxo-2,3-dihydro-1H-inden-5-yl)oxy)butanoic acid]
- On-target inhibition of ICl,SWELL ([2]; listed as SN072): entirely eliminated; also recorded: eliminate ICl,SWELL inhibitory activity
- Subsequent hypotonic SWELL1-LRRC8 activation [3]: inactive
- SWELL1 protein level relative to vehicle-treated controls (SWELL1 protein [4]): do not significantly increase
- Prevention of palmitate/glucose-induced SWELL1 protein reduction (SWELL1 protein [6]): not
